Source: patent US9580416B2, “Inhibitors of Bruton's tyrosine kinase” (PHARMACYCLICS LLC, priority 2014, dated 2017)

Legend:
Assay type in all cases: biochemical
[1] = molecular target: Btk (Homo sapiens, UniProt Q06187); test: Btk kinase activity, TR-FRET assay; details: read-out: Btk (IC50)
Experimental: (§1) Btk kinase activity is determined using a time-resolved fluorescence resonance energy transfer (TR-FRET) methodology. Measurements are performed in a reaction volume of 50 μL using 96-well assay plates. Kinase enzyme, inhibitor, ATP (at the Km for the kinase), and 1 […] (Biotin-AVLESEEELYSSARQ-NH2) are incubated in a reaction buffer composed of 20 mM Tris, 50 mM NaCl, MgCl2 (5-25 mM depending on the kinase), MnCl2 (0-10 mM), 1 mM DTT, 0.1 mM EDTA, 0.01% bovine serum albumin, 0.005% Tween-20, and 10% DMSO at pH 7.4 for one hour. The reaction is quenched by the addition of 1.2 equivalents of EDTA (relative to divalent cation) in 25 μL of 1× Lance buffer (Perkin-Elmer). Streptavidin-APC (Perkin-Elmer) and Eu-labeled p-Tyr100 antibody (Perkin-Elmer) in 1× Lance buffer are added in a 25 μL volume to give final concentrations of 100 nM and 2.5 nM, respectively, and the mixture is allowed to incubate for one hour. The TR-FRET signal is measured on a multimode plate reader with an excitation wavelength (λEx) of 330 nm and detection wavelengths (λEm) of 615 and 665 nm. Activity is determined by the ratio of the fluorescence at 665 nm to that at 615 nm. For each compound, enzyme activity is measured at various concentrations of compound. Negative control reactions are performed in the absence of inhibitor in replicates of six, and two no-enzyme controls are used to determine baseline fluorescence levels. Inhibition constants, Ki(app), ware obtained using the program BatchKi (Kuzmic et al. (2000), Anal. Biochem. 286:45-50). IC50s are obtained according to the equation: IC50={Ki(app)/(1+[ATP]/Km^ATP)}+[E]total/2;
(§2) For all kinases, [ATP]=Km^ATP, [Btk]total=0.5 nM and [Lck]total=6 nM.

[2] = molecular target: EGFR (Homo sapiens, UniProt P00533); test: Inhibition of a panel of kinases, in vitro HotSpot kinase assay: EGFR
Experimental: The degree of inhibition of a panel of kinases is determined using the in vitro HotSpot kinase assay (purified enzymes, ^33P-ATP, an appropriate substrate and 1 uM ATP).

[3] = molecular target: Lck (Homo sapiens, UniProt P06239); test: Lck kinase activity, TR-FRET assay; details: read-out: LCK (IC50)
Experimental: as §1, §2

EGFR, sequence (P00533 25-1210): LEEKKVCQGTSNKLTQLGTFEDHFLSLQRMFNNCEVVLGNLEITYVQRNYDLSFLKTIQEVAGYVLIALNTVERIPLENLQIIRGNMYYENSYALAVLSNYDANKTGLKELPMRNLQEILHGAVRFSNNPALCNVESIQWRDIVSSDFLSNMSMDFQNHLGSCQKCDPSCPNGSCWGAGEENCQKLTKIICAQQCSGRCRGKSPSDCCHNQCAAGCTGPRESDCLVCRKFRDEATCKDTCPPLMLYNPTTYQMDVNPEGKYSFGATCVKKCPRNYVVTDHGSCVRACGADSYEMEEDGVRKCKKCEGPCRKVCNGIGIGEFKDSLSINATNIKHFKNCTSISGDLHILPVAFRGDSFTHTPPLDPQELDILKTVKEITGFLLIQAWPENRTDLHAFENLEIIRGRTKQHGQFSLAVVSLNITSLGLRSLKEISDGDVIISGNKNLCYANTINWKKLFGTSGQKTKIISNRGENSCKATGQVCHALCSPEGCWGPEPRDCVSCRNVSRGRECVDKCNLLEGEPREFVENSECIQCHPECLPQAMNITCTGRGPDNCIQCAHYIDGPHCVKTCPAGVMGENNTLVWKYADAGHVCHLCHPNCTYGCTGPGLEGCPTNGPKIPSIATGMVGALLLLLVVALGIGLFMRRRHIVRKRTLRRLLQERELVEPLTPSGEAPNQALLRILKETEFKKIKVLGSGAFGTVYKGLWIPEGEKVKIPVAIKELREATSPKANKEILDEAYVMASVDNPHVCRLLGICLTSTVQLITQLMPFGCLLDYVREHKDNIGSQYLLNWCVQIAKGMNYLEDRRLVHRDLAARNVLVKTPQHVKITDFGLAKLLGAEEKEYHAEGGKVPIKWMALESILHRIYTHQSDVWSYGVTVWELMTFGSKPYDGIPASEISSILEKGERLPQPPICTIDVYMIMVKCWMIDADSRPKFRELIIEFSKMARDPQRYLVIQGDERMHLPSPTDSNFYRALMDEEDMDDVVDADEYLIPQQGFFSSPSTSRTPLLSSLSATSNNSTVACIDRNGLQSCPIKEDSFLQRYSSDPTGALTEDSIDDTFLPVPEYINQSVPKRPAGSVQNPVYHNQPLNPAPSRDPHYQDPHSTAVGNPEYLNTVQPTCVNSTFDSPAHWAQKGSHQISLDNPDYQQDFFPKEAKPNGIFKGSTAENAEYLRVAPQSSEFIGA
Btk, sequence (Q06187 whole entry): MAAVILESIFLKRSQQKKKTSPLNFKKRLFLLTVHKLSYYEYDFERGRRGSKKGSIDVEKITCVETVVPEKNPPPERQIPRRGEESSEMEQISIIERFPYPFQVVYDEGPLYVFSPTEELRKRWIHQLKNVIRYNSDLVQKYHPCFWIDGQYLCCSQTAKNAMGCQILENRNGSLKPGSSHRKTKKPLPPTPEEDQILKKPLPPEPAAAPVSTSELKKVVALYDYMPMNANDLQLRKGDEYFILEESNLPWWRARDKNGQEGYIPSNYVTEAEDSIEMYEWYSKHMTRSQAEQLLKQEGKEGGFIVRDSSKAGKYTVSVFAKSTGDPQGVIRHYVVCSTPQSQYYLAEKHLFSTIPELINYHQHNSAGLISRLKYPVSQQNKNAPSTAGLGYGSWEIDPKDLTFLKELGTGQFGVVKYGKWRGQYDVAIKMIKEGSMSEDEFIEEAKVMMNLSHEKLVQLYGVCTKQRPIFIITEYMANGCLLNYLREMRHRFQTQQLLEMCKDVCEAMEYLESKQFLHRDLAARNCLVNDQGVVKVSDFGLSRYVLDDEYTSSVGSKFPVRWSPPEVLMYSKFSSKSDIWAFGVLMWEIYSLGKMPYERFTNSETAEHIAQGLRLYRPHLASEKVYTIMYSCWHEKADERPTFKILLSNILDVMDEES
Lck, sequence (P06239 whole entry, species assumed): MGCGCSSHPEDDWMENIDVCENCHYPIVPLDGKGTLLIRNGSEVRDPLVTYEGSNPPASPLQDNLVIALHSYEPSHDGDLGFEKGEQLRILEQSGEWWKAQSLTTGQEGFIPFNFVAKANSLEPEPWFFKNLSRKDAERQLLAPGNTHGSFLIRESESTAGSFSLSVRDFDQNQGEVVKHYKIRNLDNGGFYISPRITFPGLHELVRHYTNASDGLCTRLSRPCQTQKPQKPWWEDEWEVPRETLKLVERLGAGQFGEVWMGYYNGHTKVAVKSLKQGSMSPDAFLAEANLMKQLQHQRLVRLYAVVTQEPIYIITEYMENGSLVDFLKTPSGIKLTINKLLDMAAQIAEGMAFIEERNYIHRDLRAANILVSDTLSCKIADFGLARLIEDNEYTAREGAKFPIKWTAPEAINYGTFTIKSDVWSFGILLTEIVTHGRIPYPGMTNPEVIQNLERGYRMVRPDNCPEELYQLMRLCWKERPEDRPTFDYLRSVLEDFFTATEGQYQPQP

SMILES | IC50 [1] [nM] | IC50 [2] [nM] | IC50 [3] [nM]
N#C/C(=C\c1ccccc1)C(=O)N1CC[C@@H](Nc2n[nH]c3nccc(Oc4ccc(Oc5ccccc5)cc4)c23)C1 [compound 19, (2E)-2-[(E)-(3R)-3-{[4-(4-phenoxyphenoxy)-1H-pyrazolo[3,4-b]pyridin-3-yl]amino}pyrrolidine-1-carbonyl]-3-phenylprop-2-enenitrile] | < 100 | 100 to 1000 | 100 to 1000
CN(C)C/C=C/C(=O)N1CC[C@@H](Nc2n[nH]c3nccc(Oc4cccc(Nc5ccncn5)c4)c23)C1 [compound 20, (2E)-4-(dimethylamino)-1-[(3R)-3-[(4-{3-[(pyrimidin-4-yl)amino]phenoxy}-1H-pyrazolo[3,4-b]pyridin-3-yl)amino]pyrrolidin-1-yl]but-2-en-1-one] | > 10000 | 1000 to 10000 | > 10000
CN(C/C=C/C(=O)N1CC[C@@H](Oc2n[nH]c3nccc(Oc4ccc(Oc5ccccc5)cc4)c23)C1)C1CC1 [compound 22, (2E)-4-[cyclopropyl(methyl)amino]-1-[(3R)-3-{[4-(4-phenoxyphenoxy)-1H-pyrazolo[3,4-b]pyridin-3-yl]oxy}pyrrolidin-1-yl]but-2-en-1-one] | < 100 | < 100 | < 100
CN(C/C=C/C(=O)N1CC[C@@H](Nc2n[nH]c3nccc(Nc4ccc(Oc5ccccc5)cc4)c23)C1)C1CC1 [compound 23, (2E)-4-[cyclopropyl(methyl)amino]-1-[(3R)-3-({4-[(4-phenoxyphenyl)amino]-1H-pyrazolo[3,4-b]pyridin-3-yl}amino)pyrrolidin-1-yl]but-2-en-1-one] | < 100 | 100 to 1000 | < 100
CN(C)C/C=C/C(=O)N1CC[C@@H](Nc2n[nH]c3nccc(O[C@H]4CCN(c5ccccc5)C4)c23)C1 [compound 24, (2E)-4-(dimethylamino)-1-[(3R)-3-[(4-{[(3S)-1-phenylpyrrolidin-3-yl]oxy}-1H-pyrazolo[3,4-b]pyridin-3-yl)amino]pyrrolidin-1-yl]but-2-en-1-one] | 100 to 1000 | > 10000 | 1000 to 10000
CN(C)C/C=C/C(=O)N1CC[C@@H](Nc2n[nH]c3nccc(Oc4ccc(Oc5ccccc5)cc4S(N)(=O)=O)c23)C1 [compound 25, 2-[(3-{[(3R)-1-[(2E)-4-(dimethylamino)but-2-enoyl]pyrrolidin-3-yl]amino}-1H-pyrazolo[3,4-b]pyridin-4-yl)oxy]-5-phenoxybenzene-1-sulfonamide] | 100 to 1000 | 100 to 1000 | 100 to 1000
N#C/C(=C\c1ccccn1)C(=O)N1CC[C@@H](Nc2n[nH]c3nccc(Oc4ccc(Oc5ccccc5)cc4)c23)C1 [compound 26, (2E)-2-[(E)-(3R)-3-{[4-(4-phenoxyphenoxy)-1H-pyrazolo[3,4-b]pyridin-3-yl]amino}pyrrolidine-1-carbonyl]-3-(pyridin-2-yl)prop-2-enenitrile] | < 100 | 100 to 1000 | 100 to 1000
N#C/C(=C\C1CCC1)C(=O)N1CC[C@@H](Nc2n[nH]c3nccc(Oc4ccc(Oc5ccccc5)cc4)c23)C1 [compound 27, (2E)-3-cyclobutyl-2-[(E)-(3R)-3-{[4-(4-phenoxyphenoxy)-1H-pyrazolo[3,4-b]pyridin-3-yl]amino}pyrrolidine-1-carbonyl]prop-2-enenitrile] | < 100 | 100 to 1000 | 100 to 1000
N#C/C(=C\c1ncc[nH]1)C(=O)N1CC[C@@H](Nc2n[nH]c3nccc(Oc4ccc(Oc5ccccc5)cc4)c23)C1 [compound 28, (2E)-3-(1H-imidazol-2-yl)-2-[(E)-(3R)-3-{[4-(4-phenoxyphenoxy)-1H-pyrazolo[3,4-b]pyridin-3-yl]amino}pyrrolidine-1-carbonyl]prop-2-enentrile] | < 100 | < 100 | 100 to 1000
CNC(=O)/C(C#N)=C\c1cccc(Nc2n[nH]c3nccc(Oc4ccc(Oc5ccccc5)cc4)c23)c1 [compound 29, (2Z)-2-cyano-N-methyl-3-(3-{[4-(4-phenoxyphenoxy)-1H-pyrazolo[3,4-b]pyridin-3-yl]amino}phenyl)prop-2-enamide] | < 100 | < 100 | 100 to 1000
N#Cc1cc(Nc2n[nH]c3nccc(Oc4ccc(Oc5ccccc5)cc4)c23)ccn1 [compound 30, 4-{[4-(4-phenoxyphenoxy)-1H-pyrazolo[3,4-b]pyridin-3-yl]amino}pyridine-2-carbonitrile] | 1000 to 10000 | 100 to 1000 | 100 to 1000
CNC(=O)/C(F)=C/c1cccc(Nc2n[nH]c3nccc(Oc4ccc(Oc5ccccc5)cc4)c23)c1 [compound 31, (2Z)-2-fluoro-N-methyl-3-(3-{[4-(4-phenoxyphenoxy)-1H-pyrazolo[3,4-b]pyridin-3-yl]amino}phenyl)prop-2-enamide] | 100 to 1000 | 100 to 1000 | 100 to 1000
CN(C)C/C=C/C(=O)N1CCCC(c2n[nH]c3nccc(Oc4ccc(Oc5ccccc5)cc4)c23)C1 (stereo not drawn) [compound 32, (2E)-4-(dimethylamino)-1-{3-[4-(4-phenoxyphenoxy)-1H-pyrazolo[3,4-b]pyridin-3-yl]piperidin-1-yl}but-2-en-1-one] | < 100 | 100 to 1000 | < 100

More lines, now with the values ahead:

IC50 [1] [nM] | IC50 [2] [nM] | IC50 [3] [nM] | SMILES
< 100 | 1000 to 10000 | 100 to 1000 | CN(C/C=C/C(=O)N1CC[C@@H](Nc2n[nH]c3nccc(Oc4ccc(C(=O)Nc5cc(C(F)(F)F)ccn5)cc4)c23)C1)C1CC1 [compound 33, 4-[(3-{[(3R)-1-[(2E)-4-[cyclopropyl(methyl)amino]but-2-enoyl]pyrrolidin-3-yl]amino}-1H-pyrazolo[3,4-b]pyridin-4-yl)oxy]-N-[4-(trifluoromethyl)pyridin-2-yl]benzamide]
< 100 | 1000 to 10000 | 100 to 1000 | CN(C)C/C=C/C(=O)N1CC[C@@H](Nc2n[nH]c3nccc(Oc4ccc(Oc5ccccc5)cc4C#N)c23)C1 [compound 34, 2-[(3-{[(3R)-1-[(2E)-4-(dimethylamino)but-2-enoyl]pyrrolidin-3-yl]amino}-1H-pyrazolo[3,4-b]pyridin-4-yl)oxy]-5-phenoxybenzonitrile]
100 to 1000 | > 10000 | 1000 to 10000 | CN(C/C=C/C(=O)N1CC[C@@H](Nc2n[nH]c3nccc(Oc4ccc(Oc5ccccc5)cc4C#N)c23)C1)C1CC1 [compound 35, 2-[(3-{[(3R)-1-[(2E)-4-[cyclopropyl(methyl)amino]but-2-enoyl]pyrrolidin-3-yl]amino}-1H-pyrazolo[3,4-b]pyridin-4-yl)oxy]-5-phenoxybenzonitrile]
< 100 | 1000 to 10000 | < 100 | CN(C/C=C/C(=O)N1CCC[C@H]1CNc1n[nH]c2nccc(Oc3ccc(Oc4ccccc4)cc3)c12)C1CC1 [compound 36]
< 100 | 1000 to 10000 | 100 to 1000 | CN(C/C=C/C(=O)N1CCCC[C@H]1CNc1n[nH]c2nccc(Oc3ccc(Oc4ccccc4)cc3)c12)C1CC1 [compound 37]
< 100 | 100 to 1000 | 100 to 1000 | CN(C(=O)/C=C/CN(C)C1CC1)c1cccc(Nc2n[nH]c3nccc(Oc4ccc(Oc5ccccc5)cc4)c23)c1 [compound 38]
< 100 | < 100 | 100 to 1000 | CN(C)C/C=C/C(=O)N1CC[C@@H](Nc2n[nH]c3ncnc(Oc4ccc(Oc5ccccc5)cc4)c23)C1 [compound 39]
< 100 | < 100 | 100 to 1000 | CN(C/C=C/C(=O)N1CC[C@@H](Nc2n[nH]c3nccc(Oc4ccc(OCc5cnn[nH]5)cc4)c23)C1)C1CC1 [compound 40]
